“Also recorded” adds a separate entry of the source.
Key:
Tie2 = Tie2 (Homo sapiens, UniProt Q02763); assay: Tie2 autophosphorylation in Ang-1 stimulated HUVECs; assay type: cell-based; parameters: endogenous in cells; host or cells: HUVEC; details: 200 ng/mL Ang-1 for 10 minutes
Description: Tie2 was then immunopurified (IP) and immunoblotted with anti-phosphotyrosine (pTyr) and anti-Tie2 antibodies to assess the degree of Tie2 autophosphorylation. Lysates were immunoblotted with anti-phospho-Erk and anti-phospho-AKT (Ser473) antibodies, respectively. Signals were quantified and normalized to GAPDH as a loading control. The results were shown in an immunoblot and a graph.

Solubility determination = assay type: physicochemical
[1] = system: bFGF-induced angiogenesis; assay: bFGF matrigel plug angiogenesis in vivo; parameters: species or system Female CD-1 mice; details: PO, BID×7, dosed as prodrug Compound 74
Protocol: Female CD-1 mice (19-22 g), n=4 per treatment group, were implanted subcutaneously with 500 μL growth factor reduced matrigel containing 1500 ng/mL bFGF or 0 ng/mL bFGF as a negative control. Test compounds were administered by oral gavage at the indicated doses and schedules. […] Sutent is an inhibitor of KDRand served as a positive drug control in this study. Animals were euthanized on day 7. Matrigel was harvested, weighed and homogenized in phosphate buffered saline, pH 7.4. Samples were centrifuged and the resulting lysate analyzed for hemoglobin concentration by colorimetric reaction.

VEGFR = VEGFR (Homo sapiens, UniProt P35968); assay: protein kinase IC50 determination (ATP at Km); assay type: biochemical; details: ATP concentration at Km
CYP3A4 = biological target: T1, CYP3A4 (Homo sapiens, UniProt P08684); assay: CYP inhibition assay (LC/MS, pooled human liver microsomes); assay type: in vitro ADME; details: n=1
T1 construct: using pooled human liver microsomes (n=1); from tissue; host or cells: pooled human liver microsomes
T1 sequence (P08684 whole entry): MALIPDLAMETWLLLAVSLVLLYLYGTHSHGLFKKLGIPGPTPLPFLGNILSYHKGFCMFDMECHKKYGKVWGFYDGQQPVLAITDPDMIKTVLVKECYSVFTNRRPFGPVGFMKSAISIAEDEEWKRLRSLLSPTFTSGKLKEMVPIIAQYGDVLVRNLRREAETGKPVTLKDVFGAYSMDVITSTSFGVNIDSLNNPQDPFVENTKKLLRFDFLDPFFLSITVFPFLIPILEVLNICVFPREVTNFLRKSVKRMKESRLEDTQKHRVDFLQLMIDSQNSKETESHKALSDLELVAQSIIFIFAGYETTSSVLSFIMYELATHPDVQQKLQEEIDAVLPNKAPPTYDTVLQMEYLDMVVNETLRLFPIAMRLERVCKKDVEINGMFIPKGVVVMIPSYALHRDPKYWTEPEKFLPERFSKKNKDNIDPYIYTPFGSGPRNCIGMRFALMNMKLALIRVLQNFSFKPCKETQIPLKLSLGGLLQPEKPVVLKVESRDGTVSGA

[2] = 14-day tolerability study in mice; assay type: in vivo; details: 14 days, dosed as Compound 74
Protocol: Weight loss was assessed throughout study. Blood was removed on the final day for clinical chemistries (albumin, alkaline phosphatase, ALT, Amylase, BUN, calcium, cholesterol, creatinine, glucose, phosphate, total bilirubin, TP, Globulin).

RPMI 8226 = RPMI 8226 cell viability (CellTiter Blue); assay type: cell-based; details: RPMI 8226, 72 hours
Protocol: Cell viability was then measured using CellTiter Blue (Promega) to determine IC50 values for each compound (Table 8). […] MG-132 produced an IC50 that was within historical ranges of in-house testing (Table 8).

Arg = Arg (Homo sapiens, UniProt P42684); assay: protein kinase IC50 determination (ATP at Km); assay type: biochemical; details: ATP concentration at Km
Arg, sequence (P42684 whole entry): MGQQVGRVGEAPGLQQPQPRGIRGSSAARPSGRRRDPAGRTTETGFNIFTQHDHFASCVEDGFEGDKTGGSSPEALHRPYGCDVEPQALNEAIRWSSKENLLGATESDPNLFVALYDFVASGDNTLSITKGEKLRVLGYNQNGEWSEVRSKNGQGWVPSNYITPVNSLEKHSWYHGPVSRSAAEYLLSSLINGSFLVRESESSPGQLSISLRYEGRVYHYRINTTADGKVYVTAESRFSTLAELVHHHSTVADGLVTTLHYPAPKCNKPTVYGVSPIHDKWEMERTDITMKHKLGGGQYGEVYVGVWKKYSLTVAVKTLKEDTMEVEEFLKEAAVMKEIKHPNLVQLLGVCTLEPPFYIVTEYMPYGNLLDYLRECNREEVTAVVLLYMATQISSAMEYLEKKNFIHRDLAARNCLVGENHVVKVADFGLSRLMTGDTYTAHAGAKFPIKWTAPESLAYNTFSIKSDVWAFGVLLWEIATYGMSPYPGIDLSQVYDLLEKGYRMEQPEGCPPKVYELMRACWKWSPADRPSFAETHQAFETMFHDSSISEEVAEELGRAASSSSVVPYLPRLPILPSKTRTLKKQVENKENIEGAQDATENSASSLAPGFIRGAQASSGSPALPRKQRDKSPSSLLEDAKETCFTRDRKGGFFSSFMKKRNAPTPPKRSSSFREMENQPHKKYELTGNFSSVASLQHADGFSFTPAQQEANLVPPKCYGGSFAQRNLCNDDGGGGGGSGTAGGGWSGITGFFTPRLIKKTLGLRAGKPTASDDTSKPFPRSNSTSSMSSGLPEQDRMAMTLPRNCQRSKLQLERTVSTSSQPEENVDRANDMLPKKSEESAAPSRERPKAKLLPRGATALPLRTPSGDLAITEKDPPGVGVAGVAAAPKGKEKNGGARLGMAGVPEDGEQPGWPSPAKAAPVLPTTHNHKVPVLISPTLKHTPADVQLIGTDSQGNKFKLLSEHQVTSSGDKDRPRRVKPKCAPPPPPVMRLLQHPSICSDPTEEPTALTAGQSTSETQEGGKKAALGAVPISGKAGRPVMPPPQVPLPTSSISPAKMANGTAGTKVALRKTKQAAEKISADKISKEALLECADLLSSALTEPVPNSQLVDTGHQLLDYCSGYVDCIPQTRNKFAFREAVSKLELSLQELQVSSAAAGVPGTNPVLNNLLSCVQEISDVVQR

[3] = Pharmacokinetics in monkey; assay type: in vivo, male Cynomologus monkeys
Description: Non-compartmental (model independent) methods were used to analyze the plasma concentration time-curves derived from all species as described below. Clearance (Cl), calculated percent extraction ratios (ER %), volume of distribution (Vz), time to […] (t1/2) and exposure (AUC, area under the curve) values are provided below for mouse, rat, and monkey, respectively.
3. […] Blood was sampled at the same time points as listed for the Mouse PK study.

VEGFR2 = biological target: T2, VEGFR2 (Homo sapiens, UniProt P35968); assay: VEGFR2 autophosphorylation (Tyr1175) in VEGF-stimulated HUVECs; assay type: cell-based; details: 20 ng/mL VEGF for 5 minutes, read-out: IC50, VEGFR2 autophosphorylation at Tyrosine residue 1175
T2 construct: endogenous in cells; host or cells: HUVEC
Protocol: Lysates of the various treatments were prepared and immunoblotted with antibodies specific for VEGFR2 phosphorylated at Tyr1175. […] Phospho-VEGFR2 signal was normalized to GAPDH as a loading control.

K562 cells = assay: K562 subcutaneous tumor model (BCR-Abl-driven tumors); assay type: in vivo, Female Scid-beige mice; details: for % Regression / Complete responses: K562 tumors, PO ×7, dosed as Compound 74; for Complete responses: n=8
Protocol: Test compounds were administered by oral gavage at the indicated doses and schedules when tumors reached 200±50 mm^3 in size. […] Tumor size and body weight were monitored throughout the study.

BCR-Abl = biological target: T3, BCR-Abl (Homo sapiens, UniProt P00519); assay: K562 immunoblot for p-Abl, pSTAT5, pCrkL; assay type: cell-based; details: K562 cells, 2 hours, 37-5000 nM
T3 construct: BCR (N-terminal part, natural fusion partner of the Philadelphia-chromosome chimera); endogenous in cells; host or cells: K562; the other entry of the earlier key: BCR (P11274, Breakpoint cluster region protein)
T3 sequence (P00519 with tags, fused parts or gaps): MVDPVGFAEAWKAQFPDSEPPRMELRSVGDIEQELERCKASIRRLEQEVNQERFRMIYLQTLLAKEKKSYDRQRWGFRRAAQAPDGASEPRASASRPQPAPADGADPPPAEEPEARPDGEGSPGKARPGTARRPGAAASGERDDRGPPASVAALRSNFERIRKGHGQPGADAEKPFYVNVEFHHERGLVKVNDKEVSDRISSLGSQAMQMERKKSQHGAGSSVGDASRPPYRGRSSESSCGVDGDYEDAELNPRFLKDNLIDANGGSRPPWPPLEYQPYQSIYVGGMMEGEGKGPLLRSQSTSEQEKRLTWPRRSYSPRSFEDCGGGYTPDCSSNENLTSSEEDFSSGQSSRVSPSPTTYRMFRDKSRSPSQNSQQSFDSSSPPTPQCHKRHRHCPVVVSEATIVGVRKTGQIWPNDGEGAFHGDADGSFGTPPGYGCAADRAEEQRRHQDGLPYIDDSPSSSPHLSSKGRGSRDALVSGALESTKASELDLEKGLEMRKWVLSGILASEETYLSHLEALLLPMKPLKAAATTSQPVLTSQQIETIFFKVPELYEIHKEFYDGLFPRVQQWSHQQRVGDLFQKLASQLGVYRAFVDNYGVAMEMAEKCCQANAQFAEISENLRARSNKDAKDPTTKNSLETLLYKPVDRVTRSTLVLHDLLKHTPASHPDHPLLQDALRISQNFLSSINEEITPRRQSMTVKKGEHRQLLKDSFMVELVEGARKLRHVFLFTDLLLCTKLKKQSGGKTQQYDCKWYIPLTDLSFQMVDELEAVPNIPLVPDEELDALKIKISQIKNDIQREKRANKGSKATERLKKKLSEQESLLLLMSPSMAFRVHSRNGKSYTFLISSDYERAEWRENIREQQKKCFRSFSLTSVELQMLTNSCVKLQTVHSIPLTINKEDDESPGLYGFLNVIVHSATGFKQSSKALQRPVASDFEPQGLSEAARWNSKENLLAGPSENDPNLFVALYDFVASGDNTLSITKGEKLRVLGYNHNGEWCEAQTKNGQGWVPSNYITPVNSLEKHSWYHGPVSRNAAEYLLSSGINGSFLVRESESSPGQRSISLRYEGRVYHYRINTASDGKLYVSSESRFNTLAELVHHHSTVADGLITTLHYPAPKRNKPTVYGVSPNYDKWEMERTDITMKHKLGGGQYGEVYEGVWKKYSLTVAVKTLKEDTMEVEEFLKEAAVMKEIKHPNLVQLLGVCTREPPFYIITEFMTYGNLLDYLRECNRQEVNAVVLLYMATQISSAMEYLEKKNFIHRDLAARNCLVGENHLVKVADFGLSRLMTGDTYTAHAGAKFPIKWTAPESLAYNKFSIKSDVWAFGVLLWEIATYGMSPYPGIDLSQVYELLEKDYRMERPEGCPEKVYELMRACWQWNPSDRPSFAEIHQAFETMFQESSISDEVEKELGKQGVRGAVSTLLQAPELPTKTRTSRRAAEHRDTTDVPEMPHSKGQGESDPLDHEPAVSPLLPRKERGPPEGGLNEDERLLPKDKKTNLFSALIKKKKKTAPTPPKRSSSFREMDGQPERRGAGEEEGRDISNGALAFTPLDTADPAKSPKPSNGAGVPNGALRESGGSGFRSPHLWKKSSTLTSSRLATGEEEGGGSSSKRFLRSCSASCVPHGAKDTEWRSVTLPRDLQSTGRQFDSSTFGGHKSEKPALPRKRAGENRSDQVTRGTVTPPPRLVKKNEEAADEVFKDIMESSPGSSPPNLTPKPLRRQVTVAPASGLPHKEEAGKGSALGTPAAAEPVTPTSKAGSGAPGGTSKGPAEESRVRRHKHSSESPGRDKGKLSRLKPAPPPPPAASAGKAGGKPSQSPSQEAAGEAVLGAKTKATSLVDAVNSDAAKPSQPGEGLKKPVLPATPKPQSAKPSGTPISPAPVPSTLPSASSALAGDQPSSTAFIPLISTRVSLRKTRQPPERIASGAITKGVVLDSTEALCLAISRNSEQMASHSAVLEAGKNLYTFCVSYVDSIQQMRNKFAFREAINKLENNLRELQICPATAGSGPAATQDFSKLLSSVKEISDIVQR

[4] = CD-1 mice, 10, 30 and 100 mg/kg BID, all dose groups

Tie2, sequence (Q02763 23-1124): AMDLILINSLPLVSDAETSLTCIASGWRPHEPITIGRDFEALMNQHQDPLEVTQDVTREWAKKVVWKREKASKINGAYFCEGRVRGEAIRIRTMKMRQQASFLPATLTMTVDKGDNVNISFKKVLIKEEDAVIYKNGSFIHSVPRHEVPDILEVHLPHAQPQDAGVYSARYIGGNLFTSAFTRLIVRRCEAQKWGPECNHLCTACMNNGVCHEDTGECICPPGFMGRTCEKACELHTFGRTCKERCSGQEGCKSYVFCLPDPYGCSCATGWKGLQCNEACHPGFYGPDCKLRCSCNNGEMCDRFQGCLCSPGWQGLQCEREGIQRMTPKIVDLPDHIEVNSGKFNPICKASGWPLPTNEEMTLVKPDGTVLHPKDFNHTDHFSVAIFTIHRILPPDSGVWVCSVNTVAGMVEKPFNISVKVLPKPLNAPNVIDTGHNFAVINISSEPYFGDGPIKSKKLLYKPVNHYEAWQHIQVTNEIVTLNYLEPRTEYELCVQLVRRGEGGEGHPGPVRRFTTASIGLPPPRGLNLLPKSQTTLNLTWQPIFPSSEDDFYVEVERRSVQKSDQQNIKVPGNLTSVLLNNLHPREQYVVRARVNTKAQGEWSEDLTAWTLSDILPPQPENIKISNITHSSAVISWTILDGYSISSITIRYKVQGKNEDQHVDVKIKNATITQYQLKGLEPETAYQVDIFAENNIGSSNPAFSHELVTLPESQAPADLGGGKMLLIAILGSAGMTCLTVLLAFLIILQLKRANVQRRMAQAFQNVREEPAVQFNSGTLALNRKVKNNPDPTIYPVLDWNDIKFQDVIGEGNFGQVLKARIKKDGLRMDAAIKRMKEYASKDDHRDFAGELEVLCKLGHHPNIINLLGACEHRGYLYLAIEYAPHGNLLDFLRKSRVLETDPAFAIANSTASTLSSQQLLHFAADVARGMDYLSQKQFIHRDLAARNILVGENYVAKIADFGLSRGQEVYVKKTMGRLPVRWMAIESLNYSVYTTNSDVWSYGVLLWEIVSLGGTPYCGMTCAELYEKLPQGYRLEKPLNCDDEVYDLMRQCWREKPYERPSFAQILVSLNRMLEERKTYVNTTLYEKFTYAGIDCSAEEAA

Cc1ccc(-n2nc(C(C)(C)C)cc2NC(=O)NCc2cc(F)ccc2Oc2ccc3c(cnn3CCO)c2)cc1 [Compound 72, 1-(3-tert-butyl-1-p-tolyl-1H-pyrazol-5-yl)-3-(5-fluoro-2-(1-(2-hydroxyethyl)-1H-indazol-5-yloxy)benzyl)urea]
IC50 (Tie2): < 33 nM
solubility (Solubility determination; aqueous buffer, pH 3.0): < 5 µg/mL
solubility (Solubility determination; pH 7.4, aqueous buffer): < 5 µg/mL
inhibition of bFGF-induced angiogenesis (matrigel hemoglobin) ([1]; mice, 100 mg/kg active drug, p<0.05): 72%
bFGF-induced angiogenesis, dose response ([1]; mice, 10, 30 or 100 mg/kg active drug): inhibited bFGF-induced angiogenesis in a dose-dependent manner
IC50 (VEGFR): 74 nM
IC50 (CYP3A4; substrate Midazolam): ~8000 nM
IC50 (CYP3A4; substrate Testosterone): ~10000 nM
Clinical chemistries [2, 4]: Within normal range (all dose groups)
Weight loss [2, 4]: <5% (all dose groups)
dose-limiting toxicities (DLTs) ([2]; CD-1 mice, up to 100 mg/kg BID): no dose-limiting toxicities (DLTs) were seen; also recorded: no observed DLTs
IC50 (RPMI 8226; Homo sapiens, read-out: Proliferation IC50): > 10000 nM
anti-proliferative effect (RPMI 8226; over the indicated concentration range): not anti-proliferative
IC50 (Arg): 10 nM
AUC ([3]; IV: 1 mg/kg): AUC = 4.1 μg-hr/kg
ER ([3]; IV: 1 mg/kg): ER = 20%
AUC ([3]; Oral: 10 mg/kg): AUC = 7.6 μg-hr/kg
F ([3]; Oral: 10 mg/kg): F = 38%
clearance ([3]; male, plasma, IV: 1 mg/kg): 8.8 mL/min/kg
half-life ([3]; male, plasma, IV: 1 mg/kg): 4.6 h
Vd ([3]; male, plasma, IV: 1 mg/kg, read-out: Vz): 3.2 L/kg
Cmax ([3]; male, plasma, Oral: 10 mg/kg): 260 ng/mL
IC50 (VEGFR2): 48 nM
body weight loss (K562 cells; K562 tumor-bearing Scid-beige mice, throughout the course of treatment): less than 10%
% Regression (K562 cells; 30 mg/kg BID): Stasis
Complete responses (K562 cells; 30 mg/kg BID): 0/8
% Regression (K562 cells; 100 mg/kg BID): 93%
Complete responses (K562 cells; 100 mg/kg BID): 5/8
% Regression (K562 cells; 100 mg/kg QD): Stasis
Complete responses (K562 cells; 100 mg/kg QD): 0/8
inhibition of autophosphorylation of BCR-Abl and phosphorylation of its substrates STAT5 and CrkL (immunoblot) (BCR-Abl): capable of inhibiting
